Results taken from paper PMC5706701, “Development of a homogenous high-throughput assay for inositol hexakisphosphate kinase 1 activity” (PLoS ONE, 2017).
Counter-ions that a name gives are not always drawn. Like-named read-outs stand apart in the source and are kept apart here.

Molecular target: T1, Human IP6K1 (Homo sapiens, UniProt Q92551)
T1 construct: GST (N, cleaved yes); made in house; host or cells: C43 E. coli, pGEX-6P-2
Assay: IP6K1 high-throughput screen of the Sigma LOPAC (ADP-Glo Max, single point);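 also: final compound concentration 10µM in 5% DMSO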
Assay type: biochemical

[1] = LOPAC single-point screen, ADP-Glo Max luminescence raw signal per well
[2] = LOPAC single-point screen, Z-score relative to plate average and StDev
[3] = LOPAC single-point screen, Z-score from plate average and StDev
[4] = Sigma LOPAC single-point screen, ADP-Glo Max raw signal per well
[5] = Sigma LOPAC single-point screen, Z-score from plate average and StDev
[6] = LOPAC single-point screen, ADP-Glo Max raw signal per well
[7] = LOPAC single-point screen, Z-score against plate average and StDev
[8] = LOPAC single-point screen, Z-score from raw signal with plate average and StDev

T1 sequence (Q92551 whole entry): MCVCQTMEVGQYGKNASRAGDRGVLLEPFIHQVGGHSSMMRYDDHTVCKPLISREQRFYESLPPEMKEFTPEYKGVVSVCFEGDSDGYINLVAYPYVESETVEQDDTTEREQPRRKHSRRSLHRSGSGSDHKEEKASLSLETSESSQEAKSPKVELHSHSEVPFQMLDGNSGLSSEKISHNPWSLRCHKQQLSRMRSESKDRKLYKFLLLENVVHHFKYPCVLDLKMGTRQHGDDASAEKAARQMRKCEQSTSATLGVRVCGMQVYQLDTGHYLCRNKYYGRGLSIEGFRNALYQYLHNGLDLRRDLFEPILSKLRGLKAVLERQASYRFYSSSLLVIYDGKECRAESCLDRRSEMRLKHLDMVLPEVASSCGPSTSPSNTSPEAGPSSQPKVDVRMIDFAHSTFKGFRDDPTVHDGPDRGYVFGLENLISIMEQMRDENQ

With `Cc1ccccc1N1CCN(S(=O)(=O)CC23CCC(CC2NC(=O)C(N)CCS(C)(=O)=O)C3(C)C)CC1` [L-368,899] the “Raw Signal” value [1] was 50329 and the Z-score [2] was -0.6829.
For `Cl.Nc1ccn([C@@H]2O[C@H](CO)[C@@H](O)[C@@H]2O)c(=O)n1`, the “Raw Signal” value [1] was 65878 and the Z-score [3] was 1.403.
`NCCS(=O)(=O)O` [Taurine] was tested, and the “Raw Signal” value [1] was 52621 and the Z-score [2] was -0.6611.
For `CN1CCN(CC/C=C2/c3ccccc3Sc3ccc(S(=O)(=O)N(C)C)cc32)CC1.Cl` [Thiothixene hydrochloride], the “Raw Signal” value [1] was 52919 and the Z-score [2] was -0.6032.
In the case of `Cc1ccc(S(=O)(=O)N[C@@H](Cc2ccccc2)C(=O)CCl)cc1`, the “Raw Signal” value [4] was 59222 and the Z-score [5] was 0.6213.
In the case of `Cl.Cl.NCCC(=O)NCCc1c[nH]cn1` [Carcinine dihydrochloride], the “Raw Signal” value [1] was 35878 and the Z-score [2] was -3.881.
In the case of `N/C(=N\C(=O)c1nc(Cl)c(N)nc1N)NCc1ccc(Cl)c(Cl)c1` [3 ,4 -Dichlorobenzamil], the “Raw Signal” value [6] was 56444 and the Z-score [7] was 0.2593.
`CC[C@]1(O)C[C@@H]2CN(CCc3c([nH]c4ccccc34)[C@@](C(=O)OC)(c3cc4c(cc3OC)N(C)[C@H]3[C@@](O)(C(=O)OC)[C@H](OC(C)=O)[C@]5(CC)C=CCN6CC[C@]43[C@@H]65)C2)C1.O=S(=O)(O)O` [Vinblastine sulfate salt] was tested, and the “Raw Signal” value [6] was 55305 and the Z-score [8] was -0.1396.
For `CC[C@H](C)[C@H]1O[C@]2(CC[C@@H]1C)C[C@@H]1C[C@@H](C/C=C(\C)[C@@H](O[C@H]3C[C@H](OC)[C@@H](O[C@H]4C[C@H](OC)[C@@H](O)[C@H](C)O4)[C@H](C)O3)[C@@H](C)/C=C/C=C3\CO[C@@H]4[C@H](O)C(C)=C[C@@H](C(=O)O1)[C@]34O)O2` [Ivermectin], the “Raw Signal” value [6] was 51728 and the Z-score [8] was -0.4479.
`C[C@@]1(C2CCCC2)Cc2cc(OCC(=O)O)c(Cl)c(Cl)c2C1=O` [R(+)-IAA-94] was tested, and the “Raw Signal” value [1] was 46670 and the Z-score [2] was -1.298.
In the case of `O=c1oc(Cl)c(Cl)c2ccccc12` [3,4-Dichloroisocoumarin], the “Raw Signal” value [1] was 52609 and the Z-score [2] was -0.5195.
With `CCN(CC)CCCC(C)Nc1ccnc2cc(Cl)ccc12` (stereo not shown) [Chloroquine diphosphate] the “Raw Signal” value was 55954 and the Z-score was -0.3451.
With `O=C(O)c1cc([N+](=O)[O-])ccc1NCCCc1ccccc1` the “Raw Signal” value was 51963 and the Z-score was -0.4084.
`CN(C)C(=O)N=NC(=O)N(C)C` [N,N,N ,N -Tetramethylazodicarboxamide] was tested, and the “Raw Signal” value [4] was 57249 and the Z-score [5] was 0.4228.
For `CN(C)CCCN1c2ccccc2CCc2ccc(Cl)cc21` [Clomipramine hydrochloride], the “Raw Signal” value [4] was 60543 and the Z-score [5] was 0.4632.
With `CN(N=O)c1ccc(O)c(O)c1` [Me-3,4-dephostatin] the “Raw Signal” value [1] was 32245 and the Z-score [2] was -3.722.
`CCN(CC)C(=S)SSC(=S)N(CC)CC` [Tetraethylthiuram disulfide] was tested, and the “Raw Signal” value [6] was 54661 and the Z-score [8] was -0.2648.
For `Brc1ccc([C@H]2CN3CCSC3=N2)cc1.O=C(O)C(=O)O` [S(-)-p-Bromotetramisole oxalate], the “Raw Signal” value [4] was 61891 and the Z-score [5] was 0.7006.
With `N[C@H]1CON=C1O` [L-Cycloserine] the “Raw Signal” value [6] was 56773 and the Z-score [8] was -0.2008.
In the case of `NCCCCN` [Putrescine dihydrochloride], the “Raw Signal” value [6] was 56490 and the Z-score [7] was 0.09057.
`O=c1c(O)c(-c2ccc(O)cc2O)oc2cc(O)cc(O)c12` [Morin] was tested, and the “Raw Signal” value [1] was 34376 and the Z-score [2] was -3.363.
In the case of `Cl.c1ccc2nc(C3=NCCN3)ccc2c1` [BU224 hydrochloride], the “Raw Signal” value [4] was 61573 and the Z-score [5] was 0.6446.
`O=C([O-])CCC(NC(=O)c1ccccc1C(=O)[O-])C(=O)[O-].[Na+].[Na+].[Na+]` [Phthalamoyl-L-glutamic acid trisodium] was tested, and the “Raw Signal” value [4] was 58114 and the Z-score [5] was 0.4061.
In the case of `Br.C[N+](C)(C)CCCCCNCC12CC3CC(CC(C3)C1)C2.[Br-]` [IEM-1460], the “Raw Signal” value [6] was 53178 and the Z-score [8] was -0.404.
In the case of `CCn1nc(C(=O)O)c(=O)c2cc3c(cc21)OCO3` [Cinoxacin], the “Raw Signal” value [6] was 58068 and the Z-score [7] was 0.02728.
(+)-Catechin Hydrate was tested, and the “Raw Signal” value [6] was 56524 and the Z-score [8] was -0.2447.
`OC[C@H]1NC[C@H](O)[C@@H](O)[C@@H]1O` [1-Deoxynojirimycin hydrochloride] was tested, and the “Raw Signal” value [4] was 59013 and the Z-score [5] was 0.7811.
In the case of `O.c1cnc2c(c1)ccc1cccnc12` [1,10-Phenanthroline monohydrate], the “Raw Signal” value [1] was 52659 and the Z-score [2] was -0.6537.
For `NC1CCN(O)C1=O` (racemic) [(±)-HA-966], the “Raw Signal” value [6] was 57782 and the Z-score [7] was -0.02309.
`Br.C=CCN1CCc2cccc3c2[C@H]1Cc1ccc(O)c(O)c1-3` [R(-)-N-Allylnorapomorphine hydrobromide] was tested, and the “Raw Signal” value [1] was 62401 and the Z-score [3] was 1.469.
In the case of `CNC(=O)[C@H]1O[C@@H](n2cnc3c(NCc4ccc(N)cc4)ncnc32)[C@H](O)[C@@H]1O` [AB-MECA], the “Raw Signal” value [1] was 53262 and the Z-score [2] was -0.8192.
In the case of `Cl.NCC(O)C1CCCCCCC1` (stereo not shown), the “Raw Signal” value [1] was 52354 and the Z-score [2] was -0.5713.
For `CCN(CC)C(C)C(=O)N1c2ccccc2Sc2ccccc21.Cl` (stereo not shown), the “Raw Signal” value [6] was 55206 and the Z-score [7] was 0.007914.
In the case of `CC1CNCCN1S(=O)(=O)c1cccc2cnccc12.Cl.Cl` (stereo not shown) [H-7 dihydrochloride], the “Raw Signal” value [1] was 51716 and the Z-score [2] was -0.7009.
In the case of `Cl.c1ccc2sc(C3(N4CCCCC4)CCCCC3)cc2c1` [BTCP hydrochloride], the “Raw Signal” value [6] was 55871 and the Z-score [8] was -0.3597.
`CCCCCCN(CCCCCC)C(=O)Cc1c(-c2ccc(F)cc2)[nH]c2ccccc12` was tested, and the “Raw Signal” value [6] was 56591 and the Z-score [7] was 0.2892.
`C[N+]1(C)CCC(OC(=O)C(c2ccccc2)c2ccccc2)CC1.[I-]` [4-DAMP methiodide] was tested, and the “Raw Signal” value [1] was 63096 and the Z-score [3] was 1.6103.
With `CCCCCC(O)CCCC(=O)O.[Na]` (stereo not shown) [5-hydroxydecanoic acid sodium] the “Raw Signal” value [6] was 53435 and the Z-score [8] was -0.3518.
In the case of `CCc1cccc(N(C)C(N)=Nc2cccc3ccccc23)c1` [CNS-1102], the “Raw Signal” value [4] was 64774 and the Z-score [5] was 1.208.
In the case of `CC(=O)S[C@@H]1CC2=CC(=O)CC[C@]2(C)[C@H]2CC[C@@]3(C)[C@@H](CC[C@@]34CCC(=O)O4)[C@H]12` [Spironolactone], the “Raw Signal” value [1] was 50910 and the Z-score [2] was -0.9935.
For `CC(COc1ccccc1)N(CCCl)Cc1ccccc1` (stereo not shown) [Phenoxybenzamine hydrochloride], the “Raw Signal” value [4] was 61919 and the Z-score [5] was 0.7056.
In the case of `COc1ccc2c(c[n+](C)c3c4cc5c(cc4ccc23)OCO5)c1OC` [Chelerythrine chloride], the “Raw Signal” value [1] was 66575 and the Z-score [3] was 1.5256.
With `CCCNC(=O)NS(=O)(=O)c1ccc(Cl)cc1` [Chlorpropamide] the “Raw Signal” value [6] was 58549 and the Z-score [7] was 0.112.
For `O=C(CCCN1CCC(O)(c2ccc(Cl)cc2)CC1)c1ccc(F)cc1` [Haloperidol], the “Raw Signal” value [1] was 51923 and the Z-score [2] was -0.6588.
With `N[C@@H](Cc1ccc(O)c(O)c1)C(=O)O` [L-3,4-Dihydroxyphenylalanine] the “Raw Signal” value [1] was 43363 and the Z-score [2] was -2.397.
For `N[C@]1(C(=O)O)CC[C@H](C(=O)O)C1` (racemic) [trans-(±)-ACPD], the “Raw Signal” value [6] was 56973 and the Z-score [8] was -0.1656.
In the case of `CC(NC(C)(C)C)C(=O)c1cccc(Cl)c1` (stereo not shown) [Bupropion hydrochloride], the “Raw Signal” value [6] was 56700 and the Z-score [8] was -0.2137.
In the case of `Cl.Cn1ccc2cc(NC(=O)Nc3cccnc3)ccc21` [SB 200646 hydrochloride], the “Raw Signal” value [6] was 55663 and the Z-score [8] was -0.3963.
For `Cc1nc(-c2ccc(-c3ccc(C(=O)N4CCc5cc6c(cc54)C4(CCN(C)CC4)CO6)cc3)c(C)c2)no1.Cl` [SB 224289 hydrochloride], the “Raw Signal” value [4] was 58823 and the Z-score [5] was 0.5438.
`CCN(CC)CC.Nc1ncnc2c1ncn2C1OC2COP(O)(=S)O[C@@H]2[C@@H]1O` (stereo partly shown) [Rp-cAMPS triethylamine] was tested, and the “Raw Signal” value was 55695 and the Z-score was -0.3907.
In the case of `O=C(O)c1cc2cc(F)ccc2[nH]1` [5-Fluoroindole-2-carboxylic acid], the “Raw Signal” value was 61098 and the Z-score was 0.5609.
`CNCCC(Oc1ccc(C(F)(F)F)cc1)c1ccccc1` (stereo not shown) [Fluoxetine hydrochloride] was tested, and the “Raw Signal” value [4] was 60043 and the Z-score [5] was 0.9903.
`CN1C[C@H](CNC(=O)OCc2ccccc2)C[C@@H]2c3cccc4c3c(cn4C)C[C@H]21` [Metergoline] was tested, and the “Raw Signal” value [1] was 65696 and the Z-score [3] was 1.899.
With `C[N+]1(C)[C@@H]2CC(OC(=O)[C@H](CO)c3ccccc3)C[C@H]1[C@@H]1O[C@@H]12.O=[N+]([O-])[O-]` (single isomer, unassigned; (-)) [(-)-Scopolamine methyl nitrate] the “Raw Signal” value [6] was 57036 and the Z-score [7] was 0.1966.
For `Cc1cccc(C#Cc2ccccc2)n1.Cl`, the “Raw Signal” value [1] was 51049 and the Z-score [2] was -0.562.
For `Cc1cccc(/C=C/c2ccccc2)n1` [SIB 1893], the “Raw Signal” value [6] was 55669 and the Z-score [7] was -0.06893.
For `C1COC(NC(C2CC2)C2CC2)=N1` [Rilmenidine hemifumarate], the “Raw Signal” value [6] was 56006 and the Z-score [7] was -0.003459.
For `CNC(=O)OCC[N+](C)(C)C` [Methylcarbamylcholine chloride], the “Raw Signal” value [4] was 60360 and the Z-score [5] was 1.003.
In the case of `COc1cccc(-c2cc(=O)c3ccccc3o2)c1N` [PD 98,059], the “Raw Signal” value [6] was 54412 and the Z-score [8] was -0.3131.
`CCCCCCCCCCCCCC(=O)O[C@@H]1[C@@H](C)[C@@]2(O)[C@@H](C=C(CO)C[C@]3(O)C(=O)C(C)=C[C@@H]23)[C@@H]2C(C)(C)[C@]12OC(C)=O` [Phorbol 12-myristate 13-acetate] was tested, and the “Raw Signal” value [6] was 57693 and the Z-score [7] was 0.3243.
With `N[C@H](CO)C(=O)O` [D-Serine] the “Raw Signal” value [6] was 53973 and the Z-score [8] was -0.3984.
In the case of `N=C(N)c1ccc(N)cc1` [4-Aminobenzamidine dihydrochloride], the “Raw Signal” value [1] was 52991 and the Z-score [2] was -0.8669.
